This note sets out measurements from PMC2796783, “Pharmacological Characterization of Inositol 1,4,5-tris Phosphate Receptors in Human Platelet Membranes” (Cardiovascular Psychiatry and Neurology, 2009).

The subject of assay [1] is T1, Ins(1,4,5)P3 receptors in human platelet membranes.
T1 construct: gene ITPR1; native receptor in crude platelet membranes of healthy human subjects; not purified; tetrameric channel
Nature of the assay: displacement of […] [3H]Ins([…])P3, filtration, log probit analysis. Conditions: 20 nM [3H]Ins(1,4,5)P3, 50 mM Tris-HCl pH 8.5, 1 mM EDTA, 4 °C, 10 min. The format is binding.

For assay [2] the test system is unchanged. Nature of the assay: radioligand saturation binding, filtration, Scatchard (EBDA). Conditions: 50 mM Tris-HCl pH 8.5, 1 mM EDTA, 1 mM 2-mercaptoethanol, 4 °C, 10 min; labelled compound; crude platelet membranes; single site.

One may read the IC50 as the concentration at which inhibition is half-maximal. Read a low IC50 as greater potency. Consider `O=P(O)(O)O[C@H]1[C@@H](O)[C@H](O)[C@@H](OP(=O)(O)O)[C@H](OP(=O)(O)O)[C@H]1O` [D-Ins(2,4,5)P3], for which, in assay [1], the concentration for half-maximal inhibition (IC50) was found to be 1.9 ± 0.68 µM.
Same read-out and setting: for `O=P(O)(O)O[C@@H]1[C@@H](O)[C@@H](O)[C@@H](OP(=O)(O)OC[C@H](O)CO)[C@H](O)[C@H]1OP(=O)(O)O` [GPIP2] the value was 4.97 ± 1.83 µM; for `O=P(O)(O)O[C@@H]1[C@@H](O)[C@H](OP(=O)(O)O)[C@@H](OP(=O)(O)O)[C@H](O)[C@@H]1O` [L-Ins(1,4,5)P3], 354 ± 37 µM.
The term Kd denotes the free concentration of one partner at which half of the binding sites on the other are occupied at equilibrium, for simple one-to-one binding. Read a high Kd as lower affinity. `O=P(O)(O)O[C@@H]1[C@H](O)[C@H](O)[C@@H](OP(=O)(O)O)[C@H](OP(=O)(O)O)[C@H]1O` [[^3H]Ins(1,4,5)P3] yielded a Kd in assay [2] of 22.1 ± 2.34 nM. This molecule also gave a 50% inhibitory concentration (IC50) in assay [1] (error exceeds the value) of 0.3 ± 0.5 µM.
